Laboratory results taken from the supplement of paper PMC10307832.

Legend:
Experiment in all cases: relative viability (nuclei count vs DMSO), 5 days (fraction); higher = more cells survive
[1] = compound: CN[C@@H]1C[C@H]2O[C@@](C)([C@@H]1OC)n1c3ccccc3c3c4c(c5c6ccccc6n2c5c31)C(=O)NC4 [Staurosporine] + O=C(CCCCCCC(=O)Nc1ccccc1)NO [Vorinostat] (partner 1 µM)
Procedure, shortened: (§1)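 Lung cancer cell lines in 1536-well plates got either a single drug or a fixed anchor-drug dose together with five library-drug doses (not always all listed) in √10 steps, by pin tool, on the day after seeding. Nuclei were counted after 5 days, and relative viability is the treated-to-vehicle ratio of nuclei counts. Values are medians of duplicate plates.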

[2] = compound: CC1=C(CC(=O)O)c2cc(F)ccc2/C1=C\c1ccc([S+](C)[O-])cc1 [Sulindac] + CS(=O)(=O)CCNCc1ccc(-c2ccc3ncnc(Nc4ccc(OCc5cccc(F)c5)c(Cl)c4)c3c2)o1 [Lapatinib] (partner 2 µM)
Procedure, shortened: as §1

[3] = compound: CC1=C(CC(=O)O)c2cc(F)ccc2/C1=C\c1ccc([S+](C)[O-])cc1 [Sulindac] + CC1(C)CCC(c2ccc(Cl)cc2)=C(CN2CCN(c3ccc(C(=O)NS(=O)(=O)c4ccc(N[C@H](CCN5CCOCC5)CSc5ccccc5)c(S(=O)(=O)C(F)(F)F)c4)cc3)CC2)C1 [Navitoclax] (partner 0.5 µM)
Procedure, shortened: as §1

[4] = compound: O=c1[nH]cc(F)c(=O)[nH]1 [5-Fluorouracil] + Cc1nc(Nc2ncc(C(=O)Nc3c(C)cccc3Cl)s2)cc(N2CCN(CCO)CC2)n1 [Dasatinib] (partner 0.075 µM)
Procedure, shortened: as §1

Cell Line	relative viability ([1]; first compound 0.005 µM)	relative viability ([1]; first compound 0.01581 µM)	relative viability ([1]; first compound 0.05 µM)	relative viability ([1]; first compound 0.1581 µM)	relative viability ([1]; first compound 0.5 µM)	relative viability ([2]; first compound 0.08 µM)	relative viability ([2]; first compound 0.253 µM)	relative viability ([2]; first compound 0.8 µM)	relative viability ([2]; first compound 2.53 µM)	relative viability ([2]; first compound 8 µM)	relative viability ([3]; first compound 0.08 µM)	relative viability ([3]; first compound 0.253 µM)	relative viability ([3]; first compound 0.8 µM)	relative viability ([3]; first compound 2.53 µM)	relative viability ([3]; first compound 8 µM)	relative viability ([4]; first compound 0.02 µM)	relative viability ([4]; first compound 0.2 µM)	relative viability ([4]; first compound 0.6325 µM)	relative viability ([4]; first compound 2 µM)
BEN	0.879	0.885	0.506	0.319	0.264	0.785	0.714	0.695	0.754	0.995	0.0725	0.0631	0.065	0.0775	0.0638	0.318	0.318	0.284	0.277
CAL-12T	0.415	0.231	0.165	0.129	0.112	0.697	0.64	0.583	0.545	0.806	1.67	1.35	0.969	1.38	1.42	0.403	0.371	0.282	0.261
COR-L23	0.159	0.147	0.0727	0.0709	0.0639	1.58	1.16	–	0.976	1.12	1.19	1.09	–	0.964	1.3	0.529	0.467	0.254	0.186
COR-L 105	0.69	0.289	0.228	0.333	0.224	0.348	0.34	0.408	0.324	0.412	0.591	0.987	0.901	0.722	0.962	0.292	0.362	0.29	0.244
EMC-BAC-2	0.103	–	0.14	0.166	0.266	0.945	0.973	0.682	0.88	0.93	1.49	1.21	0.776	1.19	1.23	0.343	0.332	0.368	0.35
EPLC-272H	0.216	0.141	0.0826	0.0904	0.0549	0.987	–	0.602	0.78	1.24	1.16	–	0.828	1.23	1.27	0.271	0.304	0.234	0.129
H3255	0.276	0.219	0.384	0.48	0.133	0.206	0.217	0.42	0.21	0.276	0.54	0.685	0.551	0.512	0.612	0.304	0.5	0.328	0.359
HARA	0.511	0.114	0.307	0.302	0.195	0.989	0.835	–	0.858	0.893	1.21	1.24	–	1.18	1.14	0.274	0.388	0.232	0.192
HCC-15	0.811	–	0.485	0.28	0.213	1.06	0.87	0.763	0.801	0.914	0.811	0.795	0.625	0.708	0.798	0.701	0.713	0.417	0.275
HCC-78	0.475	0.377	0.388	0.367	0.279	0.868	0.623	0.28	0.569	0.944	0.784	0.716	0.711	0.71	0.77	0.34	0.427	0.322	0.254
HCC-366	0.331	–	0.0353	0.0261	0.0187	1.19	1.13	0.765	1.06	1.49	1.32	1.19	0.817	0.957	1.18	0.559	0.61	0.249	0.0872
HCC-827	0.866	0.772	0.384	0.174	0.183	0.247	0.183	0.192	0.181	0.184	1.04	1.02	0.997	0.973	1.08	0.254	0.335	0.305	0.337
HOP-62	0.168	0.0742	0.1	0.0731	0.0573	1.19	1.24	0.929	1.15	1.19	0.982	1.37	–	1.21	1.22	0.681	0.69	0.59	0.558
LC-2-ad	0.635	0.158	0.217	0.13	0.0772	1.1	1.04	0.893	1.02	1.02	0.384	0.495	0.548	0.434	0.564	0.785	0.354	0.328	0.209
LCLC-97TM1	0.334	0.0752	0.205	0.113	0.0631	0.962	1.45	0.83	–	1.37	0.566	0.397	0.386	–	0.351	0.79	0.978	0.837	0.745
LK-2	0.19	0.0826	0.246	0.0977	0.0667	1.05	0.835	–	–	1.15	1.03	0.91	0.722	0.768	0.891	0.42	0.29	0.256	0.237
LOU-NH91	0.859	0.405	0.61	0.267	0.294	0.899	0.72	0.682	0.669	0.831	0.726	0.772	0.552	0.638	0.748	0.566	0.598	0.501	0.304

Cell Line	relative viability ([1]; first compound 0.005 µM)	relative viability ([1]; first compound 0.01581 µM)	relative viability ([1]; first compound 0.05 µM)	relative viability ([1]; first compound 0.1581 µM)	relative viability ([1]; first compound 0.5 µM)	relative viability ([2]; first compound 0.08 µM)	relative viability ([2]; first compound 0.253 µM)	relative viability ([2]; first compound 0.8 µM)	relative viability ([2]; first compound 2.53 µM)	relative viability ([2]; first compound 8 µM)	relative viability ([3]; first compound 0.08 µM)	relative viability ([3]; first compound 0.253 µM)	relative viability ([3]; first compound 0.8 µM)	relative viability ([3]; first compound 2.53 µM)	relative viability ([3]; first compound 8 µM)	relative viability ([4]; first compound 0.02 µM)	relative viability ([4]; first compound 0.2 µM)	relative viability ([4]; first compound 0.6325 µM)	relative viability ([4]; first compound 2 µM)
LU99A	0.452	0.16	0.173	0.128	0.107	1.33	1.11	0.854	0.869	1.01	0.964	0.781	0.689	0.73	0.878	0.575	0.655	0.567	0.4
LXF-289	0.73	0.249	0.29	0.0781	0.0815	0.956	0.972	0.87	0.919	0.941	1	0.97	0.953	0.999	0.965	0.192	0.202	0.152	0.154
NCI-H23	0.506	0.0921	0.0962	0.143	0.101	1.26	1.17	0.996	0.98	1.3	0.809	0.84	0.785	0.84	0.923	0.789	0.991	0.475	0.278
NCI-H322M	0.581	0.424	0.451	0.405	0.398	0.632	0.626	0.523	0.565	0.561	1.28	1.37	1.08	1.27	1.29	0.279	0.243	0.242	0.234
NCI-H460	–	0.179	0.0234	0.0138	0.0076	1.97	1.38	–	1.12	1.19	1.88	1.44	–	1.07	1.3	0.584	0.488	0.159	0.0618
NCI-H520	0.726	0.498	0.384	0.191	0.148	0.956	0.944	0.793	0.755	1.14	1.33	1.17	1.03	1.04	1.44	0.152	0.234	0.174	0.142
NCI-H596	0.59	0.424	0.258	0.192	0.126	1.02	0.983	1.01	0.973	1.21	0.901	0.953	0.812	1.02	1.13	0.717	0.605	0.48	0.366
NCI-H647	0.247	0.117	0.0686	0.0506	0.0527	1.22	1.13	0.651	1.38	1.32	1.48	1.26	0.991	1.04	1.53	0.193	0.232	0.206	0.188
NCI-H727	1.36	0.831	0.453	0.36	0.322	0.968	0.799	0.767	0.699	1.19	0.32	0.385	0.381	0.416	0.433	0.38	0.395	0.378	0.375
NCI-H838	0.36	0.217	0.142	0.171	–	1.21	1.02	0.638	0.972	1.03	1.33	1.19	1.1	1.18	1.39	0.293	0.291	0.243	0.27
NCI-H1355	0.597	0.227	0.235	0.138	0.111	1.16	1.05	0.881	0.956	1.13	1.03	0.989	0.806	0.961	0.914	0.824	0.58	0.283	0.234
NCI-H1395	0.447	0.264	0.288	0.299	0.228	1.2	1.08	1.01	0.8	1.15	1.2	1.17	1.1	1.19	1.2	0.39	0.45	0.367	0.442
NCI-H1437	0.577	0.469	0.302	0.235	0.169	0.884	1.01	0.593	0.856	1.1	1.28	1.1	1.05	1.1	1.38	0.369	0.183	0.189	0.137
NCI-H1650	0.379	0.414	0.242	0.195	0.0786	1.01	0.775	0.625	0.824	0.944	1.23	1.12	1.16	1.04	1.38	0.297	0.291	0.202	0.218
NCI-H1651	0.609	0.537	0.402	0.122	0.116	1.07	0.836	0.736	0.829	1.09	1.29	1.3	0.544	1.22	1.38	0.438	0.363	0.276	0.401
NCI-H1666	0.938	0.824	0.801	0.593	0.446	–	0.738	0.491	0.696	0.753	–	0.963	0.793	0.853	1.19	0.848	0.555	0.4	0.391
NCI-H1734	0.751	0.236	–	0.117	0.107	1.06	1.08	0.893	0.986	1.44	0.785	1.03	0.594	0.987	1.12	0.41	0.521	0.407	0.291
